In patent US20250280826A1, “PLANT GROWTH PROMOTER” (KAO CORPORATION, priority 2022, published 2025):

System: soybean
Assay: Example 5: soybean nodule activity after application of high concentration of ascorbic acid
Assay type: in vivo
Conditions: ascorbic acid dissolved in deionized water in comparison to tap water, regardless of amount of water
Source text: The items of the preparation of soil and sowing, the inoculation of Rhizobium, the cultivation conditions, the exudate collection method for measuring the amount of ureide nitrogen as an indicator of nodule activity, the experimental operation before quantification of exudate, the equipment and measurement method used for quantification of the amount of ureide nitrogen, and the standard products used and quantification were the same as those in Example 3, and the cultivation of soybean was carried out for 21 days.
Foliar spray treatment was carried out on day 14 after sowing. In addition to the reagents mentioned in Examples 2, 3, and 4, polyethylene glycol monolaurate and a glycerol fatty acid ester were used as nonionic surfactants. The reagents were dissolved in tap water or deionized water to prepare spraying solutions. Foliar spray was carried out only once. Assuming aerial spraying, 8 types of test plots containing a high concentration of ascorbic acid were examined (Table 6). In the test plots 2 and 3, 6.7 mL of each per plant was sprayed using a mister, and in the test plots 4 to 8, 0.125 mL of each per plant was sprayed.
The mean and the standard deviation were calculated from the data of four repeats, excluding the highest and the lowest values from the six repeats in each test plot.

O=C1O[C@H]([C@@H](O)CO)C(O)=C1O [ascorbic acid, (R)-3,4-dihydroxy-5-((S)-1,2-dihydroxyethyl)furan-2(5H)-one]
nodule activity (allantoic acid in exudate): increased
